{"source": "patent US20250144069A1", "about": "“BILOBALIDE DERIVATIVE COMPOUNDS FOR TREATING NEUROLOGICAL DISEASES AND CANCERS” (The Chinese University of Hong Kong, priority 2023, published 2025)", "type_in_all_cases": "cell-based", "key": {"HMC3 cells [1]": {"test_system": "HMC3 cells", "settings": "then 50 μM compound 22 h"}, "GPX4": {"test_system": "GPX4", "test": "GPX4 protein level by Western-blot", "description": "As mentioned above, RSL3 treatment results in an oxidized environment in cells, which promotes the CMA to scavenge damaged proteins including GPX4 or glyceraldehyde-3-phosphate dehydrogenase (GAPDH), a well-known CMA substrate. To gain insights into the mechanism of action of bilobalide analogue XBB-037 against the RSL3-induced ferroptosis, HMC3 cells were pre-treated with RSL3, followed by treatment with or without bilobalide analogue XBB-037.\nIn FIN56 assay, HMC3 (300,000 cells per well on 6-well plate) was pre-treated with FIN56 (2.5, 1.25, 0.625 μM) for 2 h, followed by 8 h treatment of DMSO only (0.1%) or XBB-037 (50 μM). In RSL3 assay, HMC3 (300,000 cells per well on 6-well plate) was pre-treated with RSL3 (750, 500, 250 nM) for 2 h, followed by 4 h or 8 h treatment of DMSO only (0.1%) or XBB-037 (50 μM). […] Antibodies for GPX4 (52455, CST) was used at 1:500 dilution, β-Actin (AC026, ABclonal) was used at 1:400,000 dilution, GAPDH (AC035, ABclonal) was used at 1:3000 dilution. […] Band intensity was normalized by image lab software.\nNow referring to FIGS. 7E-7F, GPX4 levels in HMC3 cells pre-treated with RSL3 are shown. Protein levels of GPX4 and […] at 0, 250, 500 or 750 nM RSL3 were measured by Western-blot. HMC3 cells were pretreated with RSL3 for 2 hours and then treated with or without 50 μM bilobalide analogue XBB-037 for 4 hours.\nIn addition to […], FIN56 was further used to investigate the GPX4 regulation of bilobalide analogue XBB-037. As mentioned above, FIN56 is a Class III ferroptosis inducer, which causes the depletion of cellular GPX4 levels without affecting GPX4 activity. In this experiment, HMC3 cells were pretreated with FIN56 for 2 hours and then treated with or without 50 μM XBB-037 for 8 hours. Protein levels were measured by Western-blotting using indicated antibodies. Data were plotted as mean±s.d., n=3 technical replicates. **p<0.01. Statistical analyses were performed by two-way ANOVA with multiple comparisons using Two-stage linear step-up procedure of Benjamini, Krieger and Yekutieli multiple comparisons test. […]"}, "HMC3 cells [2]": {"test_system": "HMC3 cells", "test": "Intracellular ROS level by CellROX (fluorescent imaging and flow cytometry)", "settings": "HMC3, 50 nM RSL3 2 h, then 50 μM compound 3 h", "experimental": "For flow cytometry, HMC3 cells (seeded 50,000 cells per well on 24-well plate one day prior to the experiment) were pretreated with 50 nM RSL3 for 2 h. […] After which medium was replaced with BODIPY™ 581/591C11 (10 μM, Invitrogen) or CellROX™ Green (5 μM, Invitrogen) for 30 min staining. Cells were then washed 3 times with PBS and collected. Fluorescence was measured by BD FACSympgony A5.2 SORP Flow Cell Analyzer (BD Biosciences).\nFor fluorescent imaging, 10,000 cells per well of HMC3 were laid on cover slip and incubated overnight. After the same compound treatment as described above in this section, cells were subsequently incubated with CellROX™ Green and Hoechst 34580 (MCE) for 30 min. After incubation, cells were washed 3 times gently with PBS. Cover slips were then attached to glass slides by Anti-Fade Fluorescence Mounting Medium (Abcam) and imaged via ECLIPSE Ti fluorescence microscope (Nikon). Fluorescent intensity was quantified using imageJ software.\nTo further evaluate the anti-ferroptotic properties of bilobalide analogues, we tested its effect on the total level of intracellular reactive oxygen species (ROS), we performed fluorescent staining on the HMC3 cell line using CellROX, which is a probe which can emit green fluorescence after reacting with ROS. […]"}}}
{"smiles": "CC(C)(C)[C@]1(O)C[C@@H]2OC(=O)C[C@@]23C(=O)O[C@@H]2N(c4ccc(N)cc4)C(=O)[C@H](OC(=O)c4ccccc4)[C@]213", "note": "[XBB-037, 4-(3aS,5aS,8R,9R,10aS)-8-(benzoyloxy)-9-(tert-butyl)-9-hydroxy-2,4,7-trioxohexahydro-4H,9H-furo[3″,2″:2′,3′]cyclopenta[1′,2′:3,4]furo[2,3-b]pyrrol-6(5aH)-yl)benzenaminium chloride]", "values": [{"measurement": "protection against FIN56-induced cell death (cell viability)", "setting": "HMC3 cells [1]; HMC3, FIN56 2 h", "value": "effectively suppressed FIN56-induced cell death"}, {"measurement": "protection against ML162 lethality (cell viability)", "setting": "HMC3 cells [1]; HMC3, ML162 2 h", "value": "alleviated the lethality of ML162"}, {"measurement": "protection against ML210 lethality (cell viability)", "setting": "HMC3 cells [1]; HMC3, ML210 2 h", "value": "alleviated the lethality of ML210"}, {"measurement": "protection against erastin-induced lethality (cell viability)", "setting": "HMC3 cells [1]; HMC3, erastin 2 h", "value": "suppressed erastin-induced lethality"}, {"measurement": "GPX4 level after FIN56", "setting": "GPX4; HMC3, FIN56 0.625, 1.25, 2.5 μM 2 h, then 50 μM compound 8 h", "value": "significantly restored GPX4 level"}, {"measurement": "GPX4 level after RSL3", "setting": "GPX4; HMC3, RSL3 0, 250, 500 or 750 nM 2 h, then 50 μM compound 4 h", "value": "RSL3-induced GPX4 degradation was reduced"}, {"measurement": "intracellular ROS level (CellROX fluorescent staining)", "setting": "HMC3 cells [2]", "value": "significantly reduced intracellular ROS level"}]}
